Assay results as given in patent US20240174690A1, “ANNULATED 2-AMINO-3-CYANO THIOPHENES AND DERIVATIVES FOR THE TREATMENT OF CANCER” (BOEHRINGER INGELHEIM INTERNATIONAL GMBH, priority 2021, published 2024).

Tests used:
[1] = system: KRAS G12D-dependent Ba/F3 cells; assay: Ba/F3 proliferation assay, KRAS G12D; type: cell-based; conditions: Mus musculus, BaF3, 72 h, AlamarBlue
Outline: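 IL-3-independent Ba/F3 lines carrying retrovirally introduced KRAS G12C, G12D or G12V; puromycin withdrawn ~10 days before assay. Duplicate treatments, AlamarBlue fluorescence readout, curve-fit analysis.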

AsPC-1 cells = assay: AsPC-1 CTG proliferation assay (120 h) (pancreatic cancer, G12D); type: cell-based; conditions: Homo sapiens, ASPC1
Outline: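 CellTiter-Glo luminescence, normalised to DMSO wells, measured viability after 120 h compound exposure. Cells were AsPC-1 pancreatic cancer (G12D) plated at 2000 per well in RPMI/10% FCS the day before dosing. IC50 derived by four-parameter regression.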

KRAS (G12C)::SOS1 = KRAS (G12C)::SOS1 (Homo sapiens (Human), UniProt P01116, C118S/C51S/C80L/G12C); assay: KRAS::SOS1 AlphaScreen binding assay, KRAS G12C
Sequence of KRAS (G12C)::SOS1 (P01116 other isoform, or with tags, fused parts or gaps G12C/C51S/C80L/C118S): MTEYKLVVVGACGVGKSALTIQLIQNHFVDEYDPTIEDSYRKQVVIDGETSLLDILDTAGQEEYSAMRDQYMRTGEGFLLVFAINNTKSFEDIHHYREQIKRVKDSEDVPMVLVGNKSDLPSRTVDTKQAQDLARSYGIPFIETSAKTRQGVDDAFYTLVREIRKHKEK
Outline: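 AlphaScreen measurement of compound disruption of biotinylated, GDP-loaded KRAS 1-169 (10 nM; G12C 7.5 nM) binding to GST-SOS1 564-1049 (5 nM with G12D/G12C, 10 nM otherwise), with 10 μM GDP in PBS/0.1% BSA/0.05% Tween 20. Timing was 30 min compound preincubation, then 60 min with beads at room temperature; top concentration 100 μM, 4-parameter IC50.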

| SMILES | IC50 [1] [nM] | IC50 (AsPC-1 cells) [nM] | IC50 (KRAS (G12C)::SOS1) [nM] |
| --- | --- | --- | --- |
| C[C@H]1CN(C)CCCN1c1cc(N2CCN(C)CC2)nc(-c2noc3c2CCC[C@@]32CCCc3sc(N)c(C#N)c32)n1 [II-30] | 273 | 2380 | 19 |
| C[C@@H]1CN(c2cc(O[C@@H](C)[C@@H]3CCCN3C)nc(-c3noc4c3CCC[C@@]43CCCc4sc(N)c(C#N)c43)n2)C[C@H](C)N1 [II-36] | 64 | 990 | 2 |
| Cc1nc(-c2cc(O[C@@H](C)[C@@H]3CCCN3C)nc(-c3onc4c3CCC[C@@]43CCCc4sc(N)c(C#N)c43)n2)cs1 [I-24] | 24 | 3450 | 2 |
| CN[C@H]1CCN(c2cc(O[C@@H](C)[C@@H]3CCCN3C)nc(-c3noc4c3CCC[C@@]43CCCc4sc(N)c(C#N)c43)n2)C1 [II-35] | 82 | 713 | 7 |
| C[C@H](Oc1cc(-c2ccn(CC(C)(C)O)n2)nc(-c2onc3c2CCC[C@@]32CCCc3sc(N)c(C#N)c32)n1)[C@@H]1CCCN1C [I-26] | 48 | 2240 | 2 |
| C[C@H](Oc1cc(N2CCNCC2)nc(-c2noc3c2CCC[C@@]32CCCc3sc(N)c(C#N)c32)n1)[C@@H]1CCCN1C [II-45] | 58 | 2310 | 3 |
| C[C@@H]1CN(c2cc(O[C@@H](C)[C@@H]3C[C@@H](F)CN3C)nc(-c3noc4c3CCC[C@@]43CCCc4sc(N)c(C#N)c43)n2)CC2(CC2)N1 [II-17] | 39 | 251 | 3 |
| CCOC(=O)c1ccn(-c2cc(O[C@@H](C)[C@@H]3CCCN3C)nc(-c3noc4c3CCC[C@@]43CCCc4sc(N)c(C#N)c43)n2)n1 [II-23] | 53 | 1640 | 1 |
| C[C@H](Oc1cc(N2CCNC3(CCCC3)C2)nc(-c2noc3c2CCC[C@@]32CCCc3sc(N)c(C#N)c32)n1)[C@@H]1CCCN1C [II-41] | 26 | 269 | 9 |
| C[C@H](Oc1cc(N2CCN(CCO)CC2)nc(-c2noc3c2CCC[C@@]32CCCc3sc(N)c(C#N)c32)n1)[C@@H]1CCCN1C [II-8] | 144 | 2730 | 3 |
| C[C@H](Oc1cc(-n2ccc(C(N)=O)n2)nc(-c2noc3c2CCC[C@@]32CCCc3sc(N)c(C#N)c32)n1)[C@@H]1CCCN1C [II-21] | 23 | 694 | 2 |
| C[C@H](Oc1cc(-n2ccc(C(=O)NC3(C)COC3)n2)nc(-c2noc3c2CCC[C@@]32CCCc3sc(N)c(C#N)c32)n1)[C@@H]1CCCN1C [II-26] | 37 | 1380 | 1 |
| C[C@H](Oc1cc(N2CCN(C)CC2)nc(-c2noc3c2CCC[C@@]32CCCc3sc(N)c(C#N)c32)n1)[C@@H]1CCCN1[C@@H]1CCOC1 [II-39] | 68 | 1760 | 6 |
| C[C@H](Oc1cc(N2C[C@@H](N(C)C)[C@@H](F)C2)nc(-c2noc3c2CCC[C@@]32CCCc3sc(N)c(C#N)c32)n1)[C@@H]1CCCN1C [II-11] | 85 | 1430 | 6 |
| C[C@H](Oc1cc(N2C[C@H](C)NC3(CC3)C2)nc(-c2noc3c2CCC[C@@]32CCCc3sc(N)c(C#N)c32)n1)[C@@H]1C[C@@H](F)CN1C [II-18] | 20 | 45 | 3 |
| C[C@H](Oc1cc(N2CC[C@@H](N(C)C)C2)nc(-c2noc3c2CCC[C@@]32CCCc3sc(N)c(C#N)c32)n1)[C@@H]1CCCN1C [II-47] | 40 | 991 | 4 |
| CO[C@H]1CCN(C)[C@@H]1[C@H](C)Oc1cc(-n2ccc(C(=O)N[C@H]3CCOC3)n2)nc(-c2onc3c2CCC[C@@]32CCCc3sc(N)c(C#N)c32)n1 [I-54] | 7 | 266 | 1 |
| C[C@H](Oc1cc(N2C[C@H]3CN(C)C[C@H]3C2)nc(-c2noc3c2CCC[C@@]32CCCc3sc(N)c(C#N)c32)n1)[C@@H]1CCCN1C [II-33] | 82 | 1410 | 8 |
| C[C@H](Oc1cc(N2CC[C@H](N3CCCC3)C2)nc(-c2noc3c2CCC[C@@]32CCCc3sc(N)c(C#N)c32)n1)[C@@H]1CCCN1C [II-14] | 10 | 245 | 4 |

| SMILES | IC50 [1] [nM] | IC50 (AsPC-1 cells) [nM] | IC50 (KRAS (G12C)::SOS1) [nM] |
| --- | --- | --- | --- |
| C[C@H](Oc1cc(-c2ccn3ncnc3c2)nc(-c2onc3c2CCC[C@@]32CCCc3sc(N)c(C#N)c32)n1)[C@@H]1CCCN1C [I-33] | 81 | 3710 | 2 |
| C[C@H](Oc1cc(-n2ccc(C(=O)N3CCCC3)n2)nc(-c2noc3c2CCC[C@@]32CCCc3sc(N)c(C#N)c32)n1)[C@@H]1CCCN1C [II-19] | 10 | 870 | 1 |
| C[C@H](Oc1cc(-c2ccn(C3COC3)n2)nc(-c2onc3c2CCC[C@@]32CCCc3sc(N)c(C#N)c32)n1)[C@@H]1CCCN1C [I-34] | 38 | 4150 | 2 |
| C[C@H](Oc1cc(-n2ccnc2)nc(-c2onc3c2CCC[C@@]32CCCc3sc(N)c(C#N)c32)n1)[C@@H]1CCCN1C [I-20] | 30 | 5420 | 2 |
| C[C@H](Oc1cc(Cl)nc(-c2onc3c2CCC[C@@]32CCCc3sc(N)c(C#N)c32)n1)[C@@H]1CCCN1C [I-1] | 178 | 5900 | 2 |
| C[C@H](Oc1cc(N2C[C@H](C)N(C)[C@@H](C)C2)nc(-c2onc3c2CCC[C@@]32CCCc3sc(N)c(C#N)c32)n1)[C@@H]1CCCN1C [I-43] | 63 | 1000 | 6 |
| C[C@H](Oc1cc([C@@H]2CCN(C)C2)nc(-c2noc3c2CCC[C@@]32CCCc3sc(N)c(C#N)c32)n1)[C@@H]1CCCN1C [II-37] | 26 | 1450 | 3 |
| C[C@H](Oc1cc(N2CCN(C)C3(CC3)C2)nc(-c2onc3c2CCC[C@@]32CCCc3sc(N)c(C#N)c32)n1)[C@@H]1C[C@@H](F)CN1C [I-39] | 34 | 149 | 10 |
| C[C@H](Oc1cc(N2CC3CCC(C2)N3)nc(-c2noc3c2CCC[C@@]32CCCc3sc(N)c(C#N)c32)n1)[C@@H]1CCCN1C [II-34] | 51 | 1420 | 3 |
| [2H]C([2H])([2H])N1C[C@H](F)C[C@H]1[C@H](C)Oc1cc(N2CCNC3(CC3)C2)nc(-c2noc3c2CCC[C@@]32CCCc3sc(N)c(C#N)c32)n1 [II-208] | 3 | 15 | 1 |
| CO[C@@H]1C[C@@H]([C@H](C)Oc2cc(N3CCN(C)C4(CC4)C3)nc(-c3onc4c3CCC[C@@]43CCCc4sc(N)c(C#N)c43)n2)N(C)C1 [I-50] | 41 | 115 | 5 |
| C[C@H](Oc1cc(-n2ccc(C(=O)N[C@H]3CCOC3)n2)nc(-c2onc3c2CCC[C@@]32CCCc3sc(N)c(C#N)c32)n1)[C@@H]1CCCN1C [I-57] | 8 | 278 | 2 |
| C[C@H](Oc1cc(N2CC[C@H](N(C)C)C2)nc(-c2noc3c2CCC[C@@]32CCCc3sc(N)c(C#N)c32)n1)[C@@H]1C[C@@H](F)CN1C [II-15] | 14 | 220 | 7 |
| C[C@H](Oc1cc([C@@H]2CCOC2)nc(-c2onc3c2CCC[C@@]32CCCc3sc(N)c(C#N)c32)n1)[C@@H]1CCCN1C [I-22] | 14 | 650 | 2 |
| CO[C@H]1CCN(C)[C@@H]1[C@H](C)Oc1cc(-n2ccc(CC(=O)NC(C)C)n2)nc(-c2onc3c2CCC[C@@]32CCCc3sc(N)c(C#N)c32)n1 [I-48] | 24 | 384 | 2 |
| COCCNC(=O)c1ccn(-c2cc(O[C@@H](C)[C@@H]3[C@@H](OC)CCN3C)nc(-c3onc4c3CCC[C@@]43CCCc4sc(N)c(C#N)c43)n2)n1 [I-55] | 12 | 565 | 1 |
| C[C@H](Oc1cc(N2CCNC3(CCC3)C2)nc(-c2noc3c2CCC[C@@]32CCCc3sc(N)c(C#N)c32)n1)[C@@H]1CCCN1C [II-40] | 7 | 261 | 3 |
| CNC(=O)c1ccn(-c2cc(O[C@@H](C)[C@@H]3CCCN3C)nc(-c3noc4c3CCC[C@@]43CCCc4sc(N)c(C#N)c43)n2)n1 [II-20] | 16 | 1030 | 1 |
